The test system of assay [1] is JAK1/TYK2 pSTAT5 (Tyr694/699) in THP-1 cell line. The experiment in a line: IFNa-stimulated JAK1/TYK2 pSTAT5 (Tyr694/699) inhibition cellular assay, AlphaLISA. The format is cell-based. The note with it: Homo sapiens; THP-1 cells, IFNa-stimulated pSTAT5 (Tyr694/699), AlphaLISA (Assay B); read-out: Cellular_THP1_IFNa-pSTATS_TYK2. The method in brief: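 Compound dilutions were dispensed first, and HBSS-suspended THP-1 cells were added on top (final top concentration 10000 nM, 6-fold series). After 1 h at 37 °C, IFNa (100 ng/mL as added) was applied for 30 min. Cells were then lysed and pSTAT5 was quantified by AlphaLISA.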
For orientation: In Alpha technology, singlet oxygen from a donor bead excites a nearby acceptor bead.

The target of assay [2] is T1, TYK2 JH2 (Homo sapiens, UniProt P29597).
T1 construct: purchased DiscoverX (KINOMEscan KdELECT service); host or cells: E. coli BL21-derived (T7 phage display) or HEK-293
T1 sequence (P29597 589-875 limits assumed): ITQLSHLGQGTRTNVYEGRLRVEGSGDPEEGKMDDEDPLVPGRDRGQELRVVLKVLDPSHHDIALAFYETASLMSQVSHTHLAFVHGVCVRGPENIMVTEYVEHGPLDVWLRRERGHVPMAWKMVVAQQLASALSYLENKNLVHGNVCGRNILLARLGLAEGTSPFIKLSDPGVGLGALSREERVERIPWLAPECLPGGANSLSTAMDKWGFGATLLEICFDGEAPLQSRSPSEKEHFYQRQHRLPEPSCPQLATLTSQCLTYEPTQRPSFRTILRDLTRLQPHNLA
The experiment in a line: TYK2 JH2 binding assay (KINOMEscan KdELECT competitive binding). The note with it: TYK2 JH2 domain, KINOMEscan KdELECT (Assay A); read-out: Biochemical TYK2_DiscoverX_JH2_BND_Kd. The method in brief: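 JH2-domain fragment, expressed as T7 phage tag in BL21-derived E. coli or DNA-tagged from HEK-293, competed with test compound against bead-immobilized biotinylated ligand in binding buffer (0.9% DMSO). 1 h shaking at room temperature; bound kinase eluted with 0.5 μM free ligand and quantified by qPCR. Kd from 11-point 3-fold dilutions.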

A value given as a limit tells only on which side of the number the result lay.

In the case of `CNc1ncc(C#Cc2ccc(Cl)cn2)c2cc(NC(=O)C3CC3)ncc12` [Example 995, N-(5-((5-chloropyridin-2-yl)ethynyl)-8-(methylamino)-2,7-naphthyridin-3-yl)cyclopropanecarboxamide], the IC50 in assay [1] was no more than 500 nM. Also, the Kd in assay [2] was no more than 100 nM.

Turning to `CNc1ncc(C#Cc2ccc3nc(C(F)F)sc3c2)c2cc(NC(=O)C3CC3)ncc12` [Example 996, N-(5-((2-(difluoromethyl)benzo[d]thiazol-6-yl)ethynyl)-8-(methylamino)-2,7-naphthyridin-3-yl)cyclopropanecarboxamide], the IC50 in assay [1] was no more than 500 nM. Besides, the Kd in assay [2] is no more than 100 nM.

As for `CNc1ncc(C#Cc2ccc3c(c2)OCO3)c2cc(NC(=O)C3CC3)ncc12` [Example 997, N-[5-[2-(1,3-benzodioxol-5-yl)ethynyl]-8-(methylamino)-2,7-naphthyridin-3-yl]cyclopropanecarboxamide], the IC50 in assay [1] was no more than 500 nM. Also, the Kd in assay [2] is no more than 100 nM.

For `CNc1ncc(C#Cc2ccc(-n3ncccc3=O)cc2)c2cc(NC(=O)C3CC3)ncc12` [Example 998, N-(8-(methylamino)-5-((4-(6-oxopyridazin-1(6H)-yl)phenyl)ethynyl)-2,7-naphthyridin-3-yl)cyclopropanecarboxamide], the IC50 in assay [1] is no more than 500 nM. Further, the Kd in assay [2] was no more than 100 nM.

For `CNc1ncc(C#Cc2ccc(N3CCOCC3=O)cc2)c2cc(NC(=O)C3CC3)ncc12` [Example 999, N-(8-(methylamino)-5-((4-(3-oxomorpholino)phenyl)ethynyl)-2,7-naphthyridin-3-yl)cyclopropanecarboxamide], the IC50 in assay [1] was no more than 500 nM. Further, the Kd in assay [2] was no more than 100 nM.

As for `CNc1ncc(C#Cc2ccc(N3CCN(C)C3=O)cc2)c2cc(NC(=O)C3CC3)ncc12` [Example 1000, N-(5-((4-(3-methyl-2-oxoimidazolidin-1-yl)phenyl)ethynyl)-8-(methylamino)-2,7-naphthyridin-3-yl)cyclopropanecarboxamide], in assay [1], the IC50 is no more than 500 nM. In addition, in assay [2], the Kd is no more than 100 nM.

In the case of `CNc1ncc(C#Cc2ccc(-n3c(=O)ccn3C)cn2)c2cc(NC(=O)C3CC3)ncc12` [Example 1001, N-(5-((5-(2-methyl-5-oxo-2,5-dihydro-1H-pyrazol-1-yl)pyridine-2-yl)ethynyl)-8-(methylamino)-2,7-nahphthyridin-3-yl)cyclopropanecarboxamide], the IC50 in assay [1] was no more than 500 nM. In assay [2], the Kd is no more than 100 nM.

Consider `CN=S(C)(=O)c1ccc(C#Cc2cnc(NC)c3cnc(NC(=O)C4CC4)cc23)cc1` (centres unmarked) [Example 1002, N-(5-((4-(N,S-dimethylsulfonimidoyl)phenyl)ethynyl)-8-(methylamino)-2,7-naphthyridin-3-yl)cyclopropanecarobxamide], for which the IC50 in assay [1] was no more than 500 nM. Further, the Kd in assay [2] is no more than 100 nM.

Consider `CNc1ncc(C#Cc2cn(C)c(C)n2)c2cc(NC(=O)C3CC3)ncc12` [Example 1003, N-(5-((1,2-dimethyl-1H-imidazol-4-yl)ethynyl)-8-(methylamino)-2,7-naphthyridin-3-yl)cyclopropanecarboxamide], for which the IC50 in assay [1] was no more than 500 nM. The Kd in assay [2] was no more than 100 nM.

As for `CNc1ncc(C#Cc2cnc(C)n2C)c2cc(NC(=O)C3CC3)ncc12` [Example 1004, N-(5-((1,2-dimethyl-1H-imidazol-5-yl)ethynyl)-8-(methylamino)-2,7-naphthyridin-3-yl)cyclopropanecarboxamide], the IC50 in assay [1] was no more than 500 nM. Also, the Kd in assay [2] was no more than 100 nM.

For `CNc1ncc(C#Cc2ccc3c(c2)OC(C)CO3)c2cc(NC(=O)C3CC3)ncc12` (centres unmarked) [Example 1005, N-(5-((3-methyl-2,3-dihydrobenzo[b][1,4]dioxin-6-yl)ethynyl)-8-(methylamino)-2,7-naphthyridin-3-yl)cyclopropanecarboxamide], the IC50 in assay [1] was no more than 500 nM. In assay [2], the Kd is no more than 100 nM.

Turning to `CNc1ncc(C#Cc2cn(C(F)F)c(C)n2)c2cc(NC(=O)C3CC3)ncc12` [Example 1006, N-(5-((1-(difluoromethyl)-2-methyl-1H-imidazol-4-yl)ethynyl)-8-(methylamino)-2,7-naphthyridin-3-yl)cyclopropanecarboxamide], the IC50 in assay [1] was no more than 500 nM. Moreover, the Kd in assay [2] is no more than 100 nM.

Regarding `CNc1ncc(C#Cc2cn(C)nn2)c2cc(NC(=O)C3CC3)ncc12` [Example 1007, N-[8-(methylamino)-5-[2-(1-methyltriazol-4-yl)ethynyl]-2,7-naphthyridin-3-yl]cyclopropanecarboxamide], in assay [1], the IC50 is no more than 500 nM. Besides, the Kd in assay [2] is no more than 100 nM.

As for `CNc1ncc(C#Cc2cn(C)cn2)c2cc(NC(=O)[C@H]3C[C@H]3C)ncc12` [Example 1008, (1S,2R)-2-methyl-N-(5-((1-methyl-1H-imidazol-4-yl)ethynyl)-8-(methylamino)-2,7-naphthyridin-3-yl)cyclopropane-1-carboxamide], in assay [1], the IC50 is no more than 500 nM. Moreover, in assay [2], the Kd is no more than 100 nM.

Turning to `CNc1ncc(C#Cc2cn(C)nn2)c2cc(NC(=O)[C@H]3C[C@H]3C)ncc12` [Example 1009], the IC50 in assay [1] is no more than 500 nM. Besides, the Kd in assay [2] was no more than 100 nM.

For the molecule `CNc1ncc(C#Cc2cn(C)c(C)n2)c2cc(NC(=O)[C@H]3C[C@H]3C)ncc12` [Example 1010, (1S,2R)-N-(5-((1,2-dimethyl-1H-imidazol-4-y)ethynyl)-8-(methylamino)-2,7-naphthyridin-3-yl)-2-methylcyclopropane-1-carboxamide], in assay [1], the IC50 is no more than 500 nM. The Kd in assay [2] is no more than 100 nM.

Turning to `CNc1ncc(C#Cc2cnc(C)n2C)c2cc(NC(=O)[C@H]3C[C@H]3C)ncc12` [Example 1011], the IC50 in assay [1] was no more than 500 nM. Also, in assay [2], the Kd was no more than 100 nM.

`CNc1ncc(C#Cc2nccc3cc(C)sc23)c2cc(NC(=O)C3CC3)ncc12` [Example 1012, N-(8-(methylamino)-5-((2-methylthieno[2,3-c]pyridin-7-yl)ethynyl)-2,7-naphthyridin-3-yl)cyclopropanecarboxamide]: the IC50 in assay [1] is no more than 500 nM. The Kd in assay [2] is no more than 100 nM.

As to `CNc1ncc(C#Cc2ccc3c(c2)CCC3=O)c2cc(NC(=O)C3CC3)ncc12` [Example 1013, N-(8-(methylamino)-5-((1-oxo-2,3-dihydro-1H-inden-5-yl)ethynyl)-2,7-naphthyridin-3-yl)cyclopropanecarboxamide], in assay [1], the IC50 is no more than 500 nM. Further, the Kd in assay [2] was no more than 100 nM.

Turning to `CNc1ncc(C#Cc2cccc3c2OCCC3)c2cc(NC(=O)C3CC3)ncc12` [Example 1014, N-(5-(chroman-8-ylethynyl)-8-(methylamino)-2,7-naphthyridin-3-yl)cyclopropanecarboxamide], the IC50 in assay [1] was no more than 500 nM. Besides, the Kd in assay [2] was no more than 100 nM.

Take `CNc1ncc(C#Cc2ccc3[nH]ccc3c2)c2cc(NC(=O)C3CC3)ncc12` [Example 1015, N-(5-((1H-indol-5-yl)ethynyl)-8-(methylamino)-2,7-naphthyridin-3-yl)cyclopropanecarboxamide]: the IC50 in assay [1] was no more than 500 nM. Further, in assay [2], the Kd was no more than 100 nM.

`CNc1ncc(C#Cc2nccc3ncsc23)c2cc(NC(=O)C3CC3)ncc12` [Example 1016, N-(8-(methylamino)-5-(thiazolo[5,4-c]pyridin-4-ylethynyl)-2,7-naphthyridin-3-yl)cyclopropanecarboxamide]: the IC50 in assay [1] is no more than 500 nM. The Kd in assay [2] was no more than 100 nM.

Turning to `CNc1ncc(C#Cc2ccc3c(c2)C(=O)N(C)C3)c2cc(NC(=O)C3CC3)ncc12` [Example 1017, N-(5-((2-methyl-3-oxoisoindolin-5-yl)ethynyl)-8-(methylamino)-2,7-naphthyridin-3-yl)cyclopropanecarboxamide], in assay [1], the IC50 was no more than 500 nM. In addition, the Kd in assay [2] is no more than 100 nM.

As to `CNc1ncc(C#Cc2c(C)nn(C)c2C)c2cc(NC(=O)C3CC3)ncc12` [Example 1018, N-(8-(methylamino)-5-((1,3,5-trimethyl-1H-pyrazol-4-yl)ethynyl)-2,7-naphthyridin-3-yl)cyclopropanecarboxamide], the IC50 in assay [1] is no more than 500 nM. In addition, the Kd in assay [2] was no more than 100 nM.

Regarding `CNc1ncc(C#Cc2cccc3c2CCCC3=O)c2cc(NC(=O)C3CC3)ncc12` [Example 1019, N-(8-(methylamino)-5-((5-oxo-5,6,7,8-tetrahydronaphthalen-1-yl)ethynyl)-2,7-naphthyridin-3-yl)cyclopropanecarboxamide], the IC50 in assay [1] was no more than 500 nM. Also, in assay [2], the Kd is no more than 100 nM.

Regarding `CNc1ncc(C#Cc2nc3ccccc3s2)c2cc(NC(=O)C3CC3)ncc12` [Example 1020, N-(5-(benzo[d]thiazol-2-ylethynyl)-8-(methylamino)-2,7-naphthyridin-3-yl)cyclopropanecarboxamide], in assay [1], the IC50 is no more than 500 nM. Also, in assay [2], the Kd was no more than 100 nM.

For `CNc1ncc(C#Cc2cnn3cccnc23)c2cc(NC(=O)C3CC3)ncc12` [Example 1021, N-(8-(methylamino)-5-(pyrazolo[1,5-a]pyrimidin-3-ylethynyl)-2,7-naphthyridin-3-yl)cyclopropanecarboxamide], the IC50 in assay [1] is no more than 500 nM. In assay [2], the Kd is no more than 100 nM.

Consider `CNc1ncc(-c2nc3ccc(N4CCOC(COC)C4)cn3n2)c2cc(NC(=O)C3CC3)ncc12` (centres unmarked) [Example 1022, N-(5-(6-(2-(methoxymethyl)morpholino)-[1,2,4]triazolo[1,5-a]pyridin-2-yl)-8-(methylamino)-2,7-naphthyridin-3-yl)cyclopropanecarboxamide], for which the IC50 in assay [1] is no more than 500 nM. Also, in assay [2], the Kd is no more than 100 nM.

The record behind these values is US20240025906A1 (NEURON23, INC., priority 2022, published 2024).
